Laboratory results reported in PMC6032158, “Structure–Activity Relationship of Piplartine and Synthetic Analogues against Schistosoma mansoni and Cytotoxicity to Mammalian Cells” (International Journal of Molecular Sciences, 2018).
Entries after “also recorded” stand apart in the source; their conditions may differ.

Legend:
[1] = system: 49-day-old S. mansoni adult worms; test: In vitro experiments with adult worms of S. mansoni (mortality, motor activity); type: cell-based, Schistosoma mansoni; settings: for Dead Worms (%) F / Motor Activity Reduction (%) Significant F / Motor Activity Reduction (%) Slight F: female worms; for Dead Worms (%) M / Motor Activity Reduction (%) Significant M / Motor Activity Reduction (%) Slight M: male worms
Experimental: The Belo Horizonte (BH) strain of S. mansoni was maintained in Biomphalaria glabrata snails and Mesocricetus auratus hamsters at the Adolfo Lutz Institute (São Paulo, Brazil) according to standard procedures. Detailed methods for the infection of molluscs and hamsters, as well as for the recovery of parasites, were as described previously. Briefly, the intermediate host snails were exposed to light for approximately 3 h and cercariae of S. mansoni were subsequently harvested. […] All animals were handled in strict accordance with good animal practice as defined by the Animal Use Ethics Committee. The preparations and culture of schistosomes was performed as previously described. Briefly, hamsters were killed 49 days after infection for the recovery of adult schistosomes. Next, fresh adult worm pairs (male and female) were washed and placed in a 24-well culture plate (TPP, St. […] Adult schistosomes were maintained continuously in medium (with or without drugs) for 96 h as described below. In vitro assays in S. mansoni adults were performed with mated males and females. The worm pairs obtained from the infusion hamsters were washed twice with RPMI 1640 medium containing 200 U/mL penicillin, 200 μg/mL streptomycin and 2 μg/mL amphotericin B (Vitrocell, Campinas, Brazil). The mated parasites were then transferred into 24-well cell culture plates (TPP, St. […] Cultures of adult worms were monitored by microscopy or magnifying glass. The effect of the drug was assessed with emphasis on changes in worm motor activity and death of worms as previously described.

[2] = system: murine fibroblast (NIH-3T3) cells; test: MTT cytotoxicity assay in murine fibroblasts; type: cell-based
Experimental: Next, the medium was removed and various concentrations (25–800 µg/mL) of samples reconstituted in 3% DMSO were applied. DMSO (3%) was used as a control. The plates were incubated for 24 h. Next, 15 µL of MTT solution (5 mg/mL in phosphate buffer) was added to each well and the plates were incubated for 2 h. Medium was discarded and 100 µL of DMSO was added to each well. Absorbance was determined using a spectrophotometer with a microplate reader at 595 nm (Molecular Devices Corporation, Sunnyvale, CA, USA).

[3] = system: mouse BALB/cN macrophage (J774A.1) cell line; test: Cell viability by flow cytometry in macrophages; settings: 24 h, 25, 100 and 400 µg/mL, vs DMEM control

Compound: COc1cc(/C=C/C(=O)N2CCCC2)cc(OC)c1OC [Compound 1G]
- Dead Worms (%) F ([1]; 5 µM, 24 h): 0%
- Motor Activity Reduction (%) Significant F ([1]; 5 µM, 24 h): 0%
- Motor Activity Reduction (%) Slight F ([1]; 5 µM, 24 h): 0%
- Dead Worms (%) M ([1]; 5 µM, 24 h): 0%
- Motor Activity Reduction (%) Significant M ([1]; 5 µM, 24 h): 0%
- Motor Activity Reduction (%) Slight M ([1]; 5 µM, 24 h): 0%
- Dead Worms (%) F ([1]; 5 µM, 48 h): 0%
- Motor Activity Reduction (%) Significant F ([1]; 5 µM, 48 h): 0%
- Motor Activity Reduction (%) Slight F ([1]; 5 µM, 48 h): 0%
- Dead Worms (%) M ([1]; 5 µM, 48 h): 0%
- Motor Activity Reduction (%) Significant M ([1]; 5 µM, 48 h): 0%
- Motor Activity Reduction (%) Slight M ([1]; 5 µM, 48 h): 0%
- Dead Worms (%) F ([1]; 5 µM, 72 h): 0%
- Motor Activity Reduction (%) Significant F ([1]; 5 µM, 72 h): 0%
- Motor Activity Reduction (%) Slight F ([1]; 5 µM, 72 h): 0%
- Dead Worms (%) M ([1]; 5 µM, 72 h): 0%
- Motor Activity Reduction (%) Significant M ([1]; 5 µM, 72 h): 0%
- Motor Activity Reduction (%) Slight M ([1]; 5 µM, 72 h): 0%
- Dead Worms (%) F ([1]; 5 µM, 96 h): 0%
- Motor Activity Reduction (%) Significant F ([1]; 5 µM, 96 h): 0%
- Motor Activity Reduction (%) Slight F ([1]; 5 µM, 96 h): 0%
- Dead Worms (%) M ([1]; 5 µM, 96 h): 0%
- Motor Activity Reduction (%) Significant M ([1]; 5 µM, 96 h): 0%
- Motor Activity Reduction (%) Slight M ([1]; 5 µM, 96 h): 0%
- Dead Worms (%) F ([1]; 10 µM, 24 h): 0%
- Motor Activity Reduction (%) Significant F ([1]; 10 µM, 24 h): 0%
- Motor Activity Reduction (%) Slight F ([1]; 10 µM, 24 h): 0%
- Dead Worms (%) M ([1]; 10 µM, 24 h): 0%
- Motor Activity Reduction (%) Significant M ([1]; 10 µM, 24 h): 0%
- Motor Activity Reduction (%) Slight M ([1]; 10 µM, 24 h): 0%
- Dead Worms (%) F ([1]; 10 µM, 48 h): 0%
- Motor Activity Reduction (%) Significant F ([1]; 10 µM, 48 h): 0%
- Motor Activity Reduction (%) Slight F ([1]; 10 µM, 48 h): 0%
- Dead Worms (%) M ([1]; 10 µM, 48 h): 0%
- Motor Activity Reduction (%) Significant M ([1]; 10 µM, 48 h): 0%
- Motor Activity Reduction (%) Slight M ([1]; 10 µM, 48 h): 0%
- Dead Worms (%) F ([1]; 10 µM, 72 h): 0%
- Motor Activity Reduction (%) Significant F ([1]; 10 µM, 72 h): 0%
- Motor Activity Reduction (%) Slight F ([1]; 10 µM, 72 h): 0%
- Dead Worms (%) M ([1]; 10 µM, 72 h): 0%
- Motor Activity Reduction (%) Significant M ([1]; 10 µM, 72 h): 0%
- Motor Activity Reduction (%) Slight M ([1]; 10 µM, 72 h): 0%
- Dead Worms (%) F ([1]; 10 µM, 96 h): 0%
- Motor Activity Reduction (%) Significant F ([1]; 10 µM, 96 h): 0%
- Motor Activity Reduction (%) Slight F ([1]; 10 µM, 96 h): 0%
- Dead Worms (%) M ([1]; 10 µM, 96 h): 0%
- Motor Activity Reduction (%) Significant M ([1]; 10 µM, 96 h): 0%
- Motor Activity Reduction (%) Slight M ([1]; 10 µM, 96 h): 0%
- Dead Worms (%) F ([1]; 25 µM, 24 h): 0%
- Motor Activity Reduction (%) Significant F ([1]; 25 µM, 24 h): 0%
- Motor Activity Reduction (%) Slight F ([1]; 25 µM, 24 h): 0%
- Dead Worms (%) M ([1]; 25 µM, 24 h): 0%
- Motor Activity Reduction (%) Significant M ([1]; 25 µM, 24 h): 0%
- Motor Activity Reduction (%) Slight M ([1]; 25 µM, 24 h): 0%
- Dead Worms (%) F ([1]; 25 µM, 48 h): 0%
- Motor Activity Reduction (%) Significant F ([1]; 25 µM, 48 h): 0%
- Motor Activity Reduction (%) Slight F ([1]; 25 µM, 48 h): 0%
- Dead Worms (%) M ([1]; 25 µM, 48 h): 0%
- Motor Activity Reduction (%) Significant M ([1]; 25 µM, 48 h): 0%
- Motor Activity Reduction (%) Slight M ([1]; 25 µM, 48 h): 0%
- Dead Worms (%) F ([1]; 25 µM, 72 h): 0%
- Motor Activity Reduction (%) Significant F ([1]; 25 µM, 72 h): 0%
- Motor Activity Reduction (%) Slight F ([1]; 25 µM, 72 h): 0%
- Dead Worms (%) M ([1]; 25 µM, 72 h): 0%
- Motor Activity Reduction (%) Significant M ([1]; 25 µM, 72 h): 0%
- Motor Activity Reduction (%) Slight M ([1]; 25 µM, 72 h): 0%
- Dead Worms (%) F ([1]; 25 µM, 96 h): 0%
- Motor Activity Reduction (%) Significant F ([1]; 25 µM, 96 h): 0%
- Motor Activity Reduction (%) Slight F ([1]; 25 µM, 96 h): 0%
- Dead Worms (%) M ([1]; 25 µM, 96 h): 0%
- Motor Activity Reduction (%) Significant M ([1]; 25 µM, 96 h): 0%
- Motor Activity Reduction (%) Slight M ([1]; 25 µM, 96 h): 0%
- Dead Worms (%) F ([1]; 50 µM, 24 h): 0%
- Motor Activity Reduction (%) Significant F ([1]; 50 µM, 24 h): 0%
- Motor Activity Reduction (%) Slight F ([1]; 50 µM, 24 h): 0%
- Dead Worms (%) M ([1]; 50 µM, 24 h): 0%
- Motor Activity Reduction (%) Significant M ([1]; 50 µM, 24 h): 0%
- Motor Activity Reduction (%) Slight M ([1]; 50 µM, 24 h): 0%
- Dead Worms (%) F ([1]; 50 µM, 48 h): 0%
- Motor Activity Reduction (%) Significant F ([1]; 50 µM, 48 h): 0%
- Motor Activity Reduction (%) Slight F ([1]; 50 µM, 48 h): 0%
- Dead Worms (%) M ([1]; 50 µM, 48 h): 0%
- Motor Activity Reduction (%) Significant M ([1]; 50 µM, 48 h): 0%
- Motor Activity Reduction (%) Slight M ([1]; 50 µM, 48 h): 0%
- Dead Worms (%) F ([1]; 50 µM, 72 h): 0%
- Motor Activity Reduction (%) Significant F ([1]; 50 µM, 72 h): 0%
- Motor Activity Reduction (%) Slight F ([1]; 50 µM, 72 h): 0%
- Dead Worms (%) M ([1]; 50 µM, 72 h): 0%
- Motor Activity Reduction (%) Significant M ([1]; 50 µM, 72 h): 0%
- Motor Activity Reduction (%) Slight M ([1]; 50 µM, 72 h): 0%
- Dead Worms (%) F ([1]; 50 µM, 96 h): 0%
- Motor Activity Reduction (%) Significant F ([1]; 50 µM, 96 h): 0%
- Motor Activity Reduction (%) Slight F ([1]; 50 µM, 96 h): 0%
- Dead Worms (%) M ([1]; 50 µM, 96 h): 0%
- Motor Activity Reduction (%) Significant M ([1]; 50 µM, 96 h): 0%
- Motor Activity Reduction (%) Slight M ([1]; 50 µM, 96 h): 0%
- activity against S. mansoni adult worms (in words) ([1]; analogues 50, 25, 10 and 5 μM, piplartine 5 and 10 μM, up to 96 h): did not exhibit antischistosome activity at the concentrations tested
- effect on NIH-3T3 cell viability (in words) ([2]; MTT, 24 h exposure, 25 to 800 µg/mL): considerable reduction in cell viability at concentrations of 400 and 800 μg/mL; also recorded: showed toxicity at 200, 400 and 800 μg/mL
- Emax at 800 µg/mL ([2]; Mus musculus, NIH3T3, 24 h, decrease in cell viability at the maximum concentration tested (800 μg/mL), NIH-3T3, 24 h): 95.69 ± 0.79%
- effect on J774A.1 cell viability (in words) [3]: significantly altered (p < 0.05) cell viability in comparison with the negative control, but not in a toxic manner

Compound: O=C(C1CCCCC1)N1CC(=O)N2CCc3ccccc3C2C1 (stereo not shown) [Praziquantel, praziquantel, reference compound]
- Dead Worms (%) M ([1]; 2 µM, 24 h): 100%
- Motor Activity Reduction (%) Significant M ([1]; 2 µM, 24 h): 100%
- Motor Activity Reduction (%) Slight M ([1]; 2 µM, 24 h): 0%
- Dead Worms (%) M ([1]; 2 µM, 48 h): 100%
- Motor Activity Reduction (%) Significant M ([1]; 2 µM, 48 h): 100%
- Motor Activity Reduction (%) Slight M ([1]; 2 µM, 48 h): 0%
- Dead Worms (%) M ([1]; 2 µM, 72 h): 100%
- Motor Activity Reduction (%) Significant M ([1]; 2 µM, 72 h): 100%
- Motor Activity Reduction (%) Slight M ([1]; 2 µM, 72 h): 0%
- Dead Worms (%) M ([1]; 2 µM, 96 h): 100%
- Motor Activity Reduction (%) Significant M ([1]; 2 µM, 96 h): 100%
- Motor Activity Reduction (%) Slight M ([1]; 2 µM, 96 h): 0%
